# PMC3125149, “SCYX-7158, an Orally-Active Benzoxaborole for the Treatment of Stage 2 Human African Trypanosomiasis” (PLoS Neglected Tropical Diseases, 2011)
# Columns and labels:
# [1] = test system: T. b. brucei 427; experiment: Reversibility of trypanocidal effects (wash-out); type: cell-based; settings: at about 5 times the IC50
# Method: To establish the time and concentration required to cause persistent or irreversible effects by oxaboroles, T. b. brucei parasites were assessed for their ability to recover from transient exposure to test compounds. Trypanosomes were seeded in clear 96-well V-bottom plates at a density of 1×10^5 parasites per well and incubated with serially diluted test compound (from 10 to 0.02 µg/mL). One plate was prepared for each time point. At the designated time, a plate was removed from the incubator and spun at 2,600 g for 5 min to sediment the parasites. The supernatant was aspirated and 100 µL of warmed HMI-9 media was added to each well. The wash was repeated twice more. The parasites were resuspended in 100 µL of warmed media and 20 µL of this suspension was added to 80 µL of HMI-9 media in triplicate plates. Following a 72 h incubation, resazurin was added and trypanocidal activity determined as described for the in vitro sensitivity assay.
# [2] = Tolerability in mice during efficacy studies; type: in vivo; settings: doses up to 100 mg/kg BID (200 mg/kg/day), highest dose administered
# [3] = Stability in plasma or brain homogenate; type: in vitro ADME; settings: incubated with plasma or brain homogenate for 4 h at 37°C
# Method: Binding to human or mouse plasma proteins or mouse brain homogenate was determined by rapid equilibrium dialysis (RED) (Pierce, Rockford, IL) using a 48-well plate-based format according to the manufacturer's instructions. Briefly, test compound at the required concentrations was added to fresh human or mouse plasma (Bioreclamation, Liverpool, NY) or freshly prepared mouse brain homogenate. Duplicate aliquots of each sample were transferred into the sample chambers of the RED devices, and dialysis buffer (BupH PBS) was added to the buffer chambers. The plates were sealed and incubated at 37°C for 4 h. After dialysis, samples collected from the buffer and tissue chambers were treated with ice-cold methanol (3 volumes for plasma, 4 volumes for brain) to precipitate proteins. The treated samples were centrifuged for 10 min at 3×10^3 g at 15°C. The supernatants were assayed for test compound by LC-MS/MS. Calibration standards and quality control samples were prepared in matched matrix and assayed with samples. Values for unbound and bound fractions and mass balance were calculated. Concordance of binding for each batch of plasma was confirmed by assay of warfarin, imipramine and carbamezapine. […] The stability of each oxaborole in the CNS tissue was evaluated by incubation in fresh rodent brain homogenate. […] Supernatants from the incubation mixtures were analyzed for parent compound by LC-MS/MS.
# [4] = test system: T. b. brucei; experiment: Effect of serum on trypanocidal activity; type: cell-based; settings: 25% mouse serum or 50% bovine serum
# Method: Compounds to be tested were serially diluted in DMSO and added to 96-well plates to give final concentrations ranging from 5 to 0.01 µg/mL. T. b. brucei parasites in the log phase of growth were diluted in HMI-9 media and added to each well for a final concentration of 1×10^4 parasites per well. For the sensitivity assays using T. b. rhodesiense and T. b. gambiense, pararasites were cultured in MEM supplemented with Baltz components (8), diluted in the aforementioned culture media, and added to each well at a density of 1×10^3 cells/well. The final concentration of DMSO was 0.5% and the total volume was 100 µL/well. After a 72 h incubation, resazurin (Sigma-Aldrich, St. Louis, MO) was added to each well [20 µL of 25 mg/100 mL stock in phosphate buffered saline (PBS)] and incubated for an additional 4–6 h.[22] To assess cell viability, fluorescence was quantified using an EnVision Multilabel Plate Reader (Perkin Elmer, Waltham, MA) at an excitation wavelength of 530 nm and emission of 590 nm. Triplicate data points were averaged to generate sigmoidal dose-response curves and determine IC50 values using XLfit curve fitting software from IDBS (Guilford, UK). The IC50 is defined as the amount of compound required to decrease parasite or cell viability by 50% compared to those grown in the absence of the test compound. […]
# [5] = In vivo pharmacokinetic characterization (abstract summary); parameters: species or system rodents
# Method: The blood distribution, CNS disposition and pharmacokinetics of SCYX-7158 were evaluated in infected or non-infected rodents following intravenous or oral administration of compounds. Pharmacokinetics and bioavailability of SCYX-7158 were also evaluated in non-infected beagle dogs and cynomolgus monkeys. In-life phases of non-infected rodent studies were performed at Vivisource (Waltham, MA); studies in non-naïve cynomolgus monkeys were performed by SNBL USA (Everett, WA).
# Male CD-1 mice (∼25 g), male Sprague-Dawley rats (∼225 g), or male cynomolgus monkeys (∼3–5 kg) were administered test article by either bolus intravenous injection (IV) or oral gavage. Animals in the IV groups received a single 2 mg/kg IV dose. Animals received oral doses of test articles as either single or twice daily doses ranging from 8 mg/kg to 50 mg/kg. All doses were administered as clear colorless solutions in either 50% (v/v) PEG 400: 20% (v/v) ethanol: 30% (v/v) carboxymethylcellulose (0.5% w/v in sterile water for injection) or 2% (v/v) ethanol: 5% (w/v) dextrose in sterile water for injection. Doses were administered in a volume of 4 mL/kg, 2 mL/kg or 1 mL/kg for mice, rats and cynomolgus monkeys, respectively. For pharmacokinetic analysis, blood samples were collected from mice via cardiac puncture under terminal anaesthesia. Serial blood samples were collected from rats via a vascular access port located in the lateral saphenous vein. Mice and rats were euthanized in a CO2 chamber before collection of terminal blood samples or brain tissue. Blood samples were collected into polypropylene tubes containing K2EDTA anticoagulant and stored on ice until centrifuged for the preparation of plasma. Plasma was stored at −70°C. Whole brains were collected following decapitation, blotted dry, placed into polypropylene containers and then immediately frozen at approximately −70°C. CSF was collected from rats via cisterna magna puncture, placed in sterile polypropylene tubes, and stored at approximately −70°C.
compound,measurement,setting,value
CC1(C)OB(O)c2cc(NC(=O)c3ccc(F)cc3C(F)(F)F)ccc21 [SCYX-7158],exposure time sufficient to produce irreversible effects on trypanosome survival,[1],10 to 12 h
same,tolerability,[2],well tolerated
same,stability,[3],stable
same,attenuation of in vitro IC50,[4],3–4 fold
same,half-life,"[5]; male, rodents and non-human primates, plasma, read-out: elimination half-life (converted)",24 h
same,brain AUC0–24 hr,"[5]; rodents, 25 mg/kg oral dose",> 100000 ng·h/mL
same,brain Cmax,"[5]; rodents, 25 mg/kg oral dose",> 10000 ng/mL
